Source: patent US20230255873A1, “COSMETIC OR DERMATOLOGICAL PEPTIDE-BASED TREATMENT OF THE SKIN AND ITS INTEGUMENTS” (Sederma, priority 2020, published 2023)
The star is where a group is joined. Palmitoyl = CCCCCCCCCCCCCCCC(=O)*

What was measured:
P. acnes = P. acnes growth curve (time to OD600 nm = 0.5); type: cell-based, Propionibacterium acnes; details: for Time (in hour) to reach OD600 nm = 0.5: vehicle 42-44 h
Description: 1—P. acnes growth curve (same protocol as described above at point 1.4)
P. acnes is thawed and grown over 3 days in M20 media. Then, optical density at 600 nm (OD600) is measured and 2×10^6 CFU*/mL are plated in well plates. P. acnes is then treated with 6 ppm, 9 ppm and 12 ppm of peptides. To follow bacterial cell multiplication, OD600 is measured regularly for about 1 week. […] Statistical evaluations are performed on results using a Student t test. Two independent experiments are performed (N=2).

[1] = tested on: normal human keratinocytes (NHK); test: Involucrin quantification by immunohistochemistry in NHK; type: cell-based; details: 5 ppm
Description: Normal human keratinocytes (NHK) are grown on wells plate. When subconfluence was reached, cells received various concentrations of the peptides. After few days, evaluation of differentiation is compared to solvent control under microscope and cells are fixed to allow the study of involucrin by immunohistochemistry.
Involucrin is an early marker of keratinocytes differentiation. The below table show the percentage of variation of involucrin vs. Control.

[2] = biological target: extracellular lipases of P. acnes (Propionibacterium acnes); test: cell-based or functional assay

Row | Molecule | Delay in P. acnes growth versus vehicle (P. acnes; 6 ppm) | Time (in hour) to reach OD600 nm = 0.5 (P. acnes; 6 ppm) [h] | Delay in P. acnes growth versus vehicle (P. acnes; 9 ppm) | Time (in hour) to reach OD600 nm = 0.5 (P. acnes; 9 ppm) [h] | Delay in P. acnes growth versus vehicle (P. acnes; 12 ppm) | Time (in hour) to reach OD600 nm = 0.5 (P. acnes; 12 ppm) [h] | Involucrin (% var vs. Control) [1] | Reduction in lipase activity of P. acnes (4-MUO fluorescent probe), variation (%) vs solvent control, 6 ppm of peptide [2] [%] | Reduction in lipase activity of P. acnes (4-MUO fluorescent probe), variation (%) vs solvent control, 9 ppm of peptide [2] [%] | Reduction in lipase activity of P. acnes (4-MUO fluorescent probe), variation (%) vs solvent control, 12 ppm of peptide [2] [%]
1 | Pal-GKTSKS-OH | +2 h | 45.6 | +12 h | 56.2 | +26 h | 70.2 | – | – | – | –
2 | Pal-KTSKSA-OH (Palmitoyl-KTSKSA-OH; SMILES CCCCCCCCCCCCCCCC(=O)N[C@@H](CCCCN)C(=O)N[C@H](C(=O)N[C@@H](CO)C(=O)N[C@@H](CCCCN)C(=O)N[C@@H](CO)C(=O)N[C@@H](C)C(=O)O)[C@@H](C)O) [other preferred peptide of the invention, palmitoyl hexapeptide KTSKSA] | +5 h | 47.3 | +15 h | 57.9 | +18 h | 60.5 | +152%; p < 0.01 | – | – | –
3 | Pal-KTSKT-OH (Palmitoyl-KTSKT-OH; SMILES CCCCCCCCCCCCCCCC(=O)N[C@@H](CCCCN)C(=O)N[C@H](C(=O)N[C@@H](CO)C(=O)N[C@@H](CCCCN)C(=O)N[C@H](C(=O)O)[C@@H](C)O)[C@@H](C)O) [other preferred peptide of the invention, palmitoyl pentapeptide KTSKT] | +5 h | 47.7 | +13 h | 55.2 | +43 h | 85.1 | +125%; p < 0.01 | – | – | –
4 | Palmitoyl-KTSKS-OH (SMILES CCCCCCCCCCCCCCCC(=O)N[C@@H](CCCCN)C(=O)N[C@H](C(=O)N[C@@H](CO)C(=O)N[C@@H](CCCCN)C(=O)N[C@@H](CO)C(=O)O)[C@@H](C)O) [Pal-KTSKS-OH] | – | – | – | – | – | – | – | -22 | -64 | -88
